# Data taken from patent US20260216226A1, “TRIPLE COMBINED THERAPY INHIBITING EGFR, RAF1 AND STAT3 AGAINST PANCREATIC DUCTAL ADENOCARCINOMA” (FUNDACION DEL SECTOR PUBLICO ESTATAL CENTRO NACIONAL DE …, priority 2023, published 2026).
# Columns and labels:
# STAT3 [1] = conditions: Kras mutant pancreatic and colon cancer cells; cited from earlier work
# STAT3 [2] = target: T1, STAT3 (Mus musculus, UniProt P42227); assay: Western blot analysis of STAT3 expression in cell-lysate extracts; type: cell-based; conditions: NR PDAC cells treated with SD-36; GAPDH loading control
# T1 construct: Western blot analysis of the expression of STAT3 of cell-lysate extracts; endogenous in cells; host or cells: Egfr lox/lox; Raf1 lox/lox PDAC (NR) tumor cells infected with Adeno-GFP or Adeno-CRE
# Procedure: (§1) FIG. 2. A. Colony formation assay of Egfr^lox/lox; Raf1^lox/lox PDAC cells infected with Adeno-GFP and Adeno-CRE viral particles in combination with treatment with 1 μM SD-36. 5000 cells were seeded for 10 days and culture medium was changed every day. B. Western blot analysis of the expression of STAT3 of cell-lysate extracts. GAPDH was used as loading control.
# The expression of STAT3 was targeted by shRNAs after genetic deletion of Egfr and Raf1 in NR cells by Adeno-GFP and Adeno-GFP-CRE infection. […] NR tumor cells, previously infected with Adeno-GFP and Adeno-GFP-CRE virus to eliminate the EGFR and the Raf1 (floxed targets), were treated with SD-36 for 10 days in a colony formation assay. Elimination of the targets was very efficient.
# [3] = system: NR PDACs (tumors of big sizes); assay: Tumor growth monitored by ultrasound in genetically engineered mice; type: in vivo, mouse; conditions: NR triple: SD-36 50 mg/kg daily added to tamoxifen and Afatinib 20 mg/kg daily
# Procedure: (§2) Silencing of Egfr, Raf1 and Stat3 was mediated with the lentiviral short hairpin RNA (shRNA) plasmids TRCN0000055218, TRCN0000012628 and TRCN0000071453 respectively. The non-target shRNA vector was used as control. The pharmacological treatments were conducted with the following agents: Afatinib (20 mg/kg, daily), SD-36 (50 mg/kg, daily).
# It was also included in the combined treatment Afatinib (a tyrosine receptor kinase inhibitor against EGFR) and SD-36 (PROTAC degrader against STAT3).
# [4] = system: Egfr^lox/lox; Raf1^lox/lox PDAC cells; assay: Colony formation assay of NR PDAC cells infected with Adeno-GFP or Adeno-CRE; type: cell-based; conditions: 1 μM SD-36, 10 days
# Procedure: FIG. 1. Colony formation assay of Egfr^lox/lox; Raf1^lox/lox PDAC cells infected with Adeno-GFP and Adeno-CRE viral particles in combination with small-hairpin RNA (shRNA) against STAT3 and Scr (empty vector) as control. 5000 cells were seeded for 10 days. B. Western blot analysis of the expression of EGFR, RAF1 and STAT3 of cell-lysate extracts. GAPDH was used as loading control.
# as §1, §2
# The expression of STAT3 was targeted by shRNAs after genetic deletion of Egfr and Raf1 in NR cells by Adeno-GFP and Adeno-GFP-CRE infection. […]
# [5] = system: pancreatic ductal adenocarcinoma (PDAC); conditions: adjuvant treatment, patients with resectable disease; cited from earlier work
# T1 sequence (P42227 whole entry): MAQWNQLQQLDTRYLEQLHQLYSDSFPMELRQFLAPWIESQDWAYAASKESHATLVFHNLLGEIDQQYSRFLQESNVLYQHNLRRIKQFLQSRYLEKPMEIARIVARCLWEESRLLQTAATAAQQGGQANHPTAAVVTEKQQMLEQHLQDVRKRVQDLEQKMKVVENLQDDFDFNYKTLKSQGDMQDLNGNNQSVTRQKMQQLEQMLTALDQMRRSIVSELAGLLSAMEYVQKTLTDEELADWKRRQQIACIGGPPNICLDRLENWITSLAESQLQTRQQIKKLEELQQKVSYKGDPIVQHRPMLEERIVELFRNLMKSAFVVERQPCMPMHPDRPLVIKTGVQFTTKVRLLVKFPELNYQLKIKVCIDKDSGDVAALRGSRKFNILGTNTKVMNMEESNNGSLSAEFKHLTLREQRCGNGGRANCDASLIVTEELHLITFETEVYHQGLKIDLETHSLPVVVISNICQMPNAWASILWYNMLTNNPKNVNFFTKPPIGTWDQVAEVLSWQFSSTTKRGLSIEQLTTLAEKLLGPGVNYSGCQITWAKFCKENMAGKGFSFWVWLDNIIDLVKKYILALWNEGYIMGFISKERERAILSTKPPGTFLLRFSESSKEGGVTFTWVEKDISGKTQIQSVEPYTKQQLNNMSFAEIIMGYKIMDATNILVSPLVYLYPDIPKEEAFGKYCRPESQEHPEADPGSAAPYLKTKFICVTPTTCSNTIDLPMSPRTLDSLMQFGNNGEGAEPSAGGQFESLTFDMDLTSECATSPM
compound,measurement,setting,value
Cn1cnc2c(F)c(Nc3ccc(Br)cc3Cl)c(C(=O)NOCCO)cc21 [AZD6244],STAT3 activation,STAT3 [1],significantly activated
COc1cccc(-c2cc(=O)c3ccccc3o2)c1N [PD98059],STAT3 activation,STAT3 [1],significantly activated
NC(=O)CC[C@H](NC(=O)[C@@H]1CC[C@@H]2CCN(C(=O)CCCCCC#Cc3cccc4c3CN(C3CCC(=O)NC3=O)C4=O)C[C@H](NC(=O)c3cc4cc(C(F)(F)P(=O)(O)O)ccc4[nH]3)C(=O)N21)C(=O)NC(c1ccccc1)c1ccccc1 (stereo partly shown) [SD-36],STAT3 degradation,STAT3 [2],effectively degraded STAT3
same,tumor growth,[3],significant delay and slight reduction of tumor growth
same,growth of NR cells that express Egfr and Raf1 (toxicity),"[4]; Adeno-GFP infected NR cells, versus vehicle control",grew similarly as the vehicle control
same,colony formation / cell death of NR tumor cells,[4]; NR cells after deletion of Egfr and Raf1 (Adeno-CRE),cell death of NR tumor cells
FOLFIRINOX,median overall survival (OS),[5],54 months
